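Growth conditions: 96-well plates. Treatment: test compound, 48 hours, 5 concentrations. Analysis: linear interpolation between bracketing concentrations; unreached endpoints set to highest concentration. GI50: concentration for 50% inhibition of growth.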 The source made the active and inactive calls. Rule as the data show it: active = GI50 up to about 1.1 µM and inactive = higher.
How the values were obtained:
Test in all cases: DTP human tumour cell line panel, 48 h
[1] = test system: COLO 205
[2] = test system: HCC 2998
[3] = test system: HCT-116
[4] = test system: HL-60
[5] = test system: KM-20L2
[6] = test system: KM12
[7] = test system: LOX IMVI
[8] = test system: MOLT-4
[9] = test system: NCI-H23
[10] = test system: OVCAR-4
[11] = test system: OVCAR-5
[12] = test system: RXF 393
[13] = test system: SNB-19
[14] = test system: SNB-78
[15] = test system: UO-31
[16] = test system: HOP-92
[17] = test system: DMS-114

Measured: GI50

COc1ccc(C#CCC(OC2OC(CO)C(O)C(O)C2O)C(O)c2ccc(OC)c(OC)c2)cc1OC (centres undefined)
inactive: [1] > 100 µM | [2] > 100 µM | [3] > 100 µM | [4] 61.1 µM | [5] > 100 µM | [6] > 100 µM | [7] 22.8 µM | [8] > 100 µM | [9] > 100 µM | [10] > 100 µM | [11] > 100 µM | [12] > 100 µM | [13] > 100 µM | [14] > 100 µM | [15] > 100 µM

[C-]#[N+]C(C)(C)C[C@H]1CC(C)C2CCC(C)C3([N+]#[C-])CCC(=C)C1[C@H]23 (some centres undefined)
inactive: [2] 5.83 µM | [5] 5.36 µM | [13] 2.22 µM
active: [1] 0.166 µM | [3] 0.184 µM | [4] 0.601 µM | [16] 0.106 µM | [6] 0.308 µM | [7] 0.147 µM | [8] 0.316 µM | [9] 0.509 µM | [10] 0.234 µM | [11] 0.288 µM | [12] 0.294 µM | [14] 0.249 µM | [15] 0.251 µM

Cc1cc(N(CCC#N)CCC#N)ccc1/C=C1N=C(/C=C\c2ccccc2)N(c2ccc(C(=O)O)cc2)C\1=O
inactive: [1] > 100 µM | [17] > 100 µM | [3] > 100 µM | [4] > 100 µM | [16] > 100 µM | [5] > 100 µM | [6] > 100 µM | [7] > 100 µM | [8] > 100 µM | [9] > 100 µM | [10] > 100 µM | [11] > 100 µM | [13] > 100 µM | [14] > 100 µM | [15] > 100 µM

COc1cc(OC)c(OC)cc1/C=N/NC(=O)N/N=C/c1cc(OC)c(OC)cc1OC
inactive: [1] > 100 µM | [17] > 100 µM | [3] > 100 µM | [16] 49.9 µM | [5] > 100 µM | [6] > 100 µM | [7] > 100 µM | [8] > 100 µM | [9] > 100 µM | [10] > 100 µM | [11] > 100 µM | [13] > 100 µM | [14] > 100 µM | [15] > 100 µM

CCN(CC)/[N+]([O-])=N/OCC(C)O (centres undefined)
inactive: [17] > 100 µM | [2] > 100 µM | [3] > 100 µM | [4] > 100 µM | [16] > 100 µM | [6] > 100 µM | [7] > 100 µM | [8] > 100 µM | [9] > 100 µM | [11] > 100 µM | [12] > 100 µM | [13] > 100 µM | [14] > 100 µM | [15] > 100 µM

CCOCN1COCN(C)C1=O
inactive: [1] > 100 µM | [2] > 100 µM | [3] > 100 µM | [16] > 100 µM | [5] > 100 µM | [6] > 100 µM | [7] > 100 µM | [9] > 100 µM | [10] > 100 µM | [11] > 100 µM | [13] > 100 µM | [14] > 100 µM | [15] > 100 µM

Oc1ccc(I)c2cccnc12
inactive: [1] 27.2 µM | [3] 4.71 µM | [4] 2.12 µM | [16] 15.9 µM | [5] 50.4 µM | [6] 14.8 µM | [7] 8.26 µM | [8] 2.96 µM | [9] 8.38 µM | [10] 26.4 µM | [11] 52.5 µM | [12] 6.82 µM | [13] 17.8 µM | [14] 56.9 µM | [15] 6.98 µM

CC1CCC[P+](Cc2ccccc2)(c2ccccc2)CC1 (centres undefined)
inactive: [1] 40.4 µM | [17] 18.5 µM | [2] 29.1 µM | [4] 14.8 µM | [5] 50.6 µM | [7] 32 µM | [8] 78.5 µM | [9] 27.2 µM | [10] 15.8 µM | [11] > 100 µM | [12] 23.1 µM | [13] 46.5 µM | [14] 48.3 µM | [15] > 100 µM

O=c1c2ccccc2n2n1CC(O)C2 (centres undefined)
inactive: [1] > 100 µM | [2] > 100 µM | [3] > 100 µM | [4] > 100 µM | [16] > 100 µM | [5] > 100 µM | [6] > 100 µM | [7] > 100 µM | [8] > 100 µM | [9] > 100 µM | [10] > 100 µM | [11] > 100 µM | [12] > 100 µM | [13] > 100 µM | [14] 9.35 µM | [15] > 100 µM

Cc1ccc2c(CC(=O)O)cc(=O)oc2c1
inactive: [1] > 100 µM | [17] > 100 µM | [2] > 100 µM | [3] > 100 µM | [4] > 100 µM | [16] > 100 µM | [5] > 100 µM | [6] > 100 µM | [7] > 100 µM | [8] > 100 µM | [9] > 100 µM | [10] > 100 µM | [11] > 100 µM | [12] 3.72 µM | [13] > 100 µM

CC(/C=C/c1ccccc1)=N\N=C(C)\C=C\c1ccccc1
inactive: [1] > 10 µM | [2] > 100 µM | [3] > 100 µM | [4] > 100 µM | [5] > 100 µM | [6] > 100 µM | [7] > 100 µM | [8] > 100 µM | [9] > 100 µM | [10] > 100 µM | [11] > 100 µM | [14] > 100 µM

ClC[Si]12OCCN(CCO1)CCO2
inactive: [1] > 100 µM | [17] > 100 µM | [2] > 100 µM | [3] > 100 µM | [4] > 100 µM | [16] > 100 µM | [6] > 100 µM | [8] > 100 µM | [9] > 100 µM | [11] > 100 µM | [12] > 100 µM | [13] > 100 µM | [14] > 100 µM | [15] > 100 µM

Cn1c(=O)nc2n(-c3cc(Cl)ccc3Cl)c3ccccc3nc-2c1=O
active: [9] 0.299 µM
inactive: [1] 1.82 µM | [17] 2.11 µM | [2] 2.68 µM | [3] 4.33 µM | [5] 2.93 µM | [6] 5.58 µM | [8] 8.02 µM | [10] 4.33 µM | [11] 13 µM | [12] 14.8 µM | [13] 4.67 µM | [14] 13.5 µM | [15] 13.6 µM

CCC1C2C=CC(CC2)N1S(=O)(=O)c1ccc(C)cc1 (centres undefined)
inactive: [1] 21.7 µM | [17] 20.3 µM | [3] 30.9 µM | [4] 4.22 µM | [5] 17.3 µM | [6] 24.4 µM | [7] 15.8 µM | [8] 32.6 µM | [10] 31.8 µM | [11] 22.3 µM | [13] 24.4 µM | [15] 12.9 µM

Reference: ChEMBL document CHEMBL1201862, “PubChem BioAssay data set” (2004)
